In the assay the target is T1, mGlyT-1b (Mus musculus, UniProt P28571).
T1 construct: host or cells: Flp-in-CHO cells
T1 sequence (P28571 1-651 isoform P28571-2): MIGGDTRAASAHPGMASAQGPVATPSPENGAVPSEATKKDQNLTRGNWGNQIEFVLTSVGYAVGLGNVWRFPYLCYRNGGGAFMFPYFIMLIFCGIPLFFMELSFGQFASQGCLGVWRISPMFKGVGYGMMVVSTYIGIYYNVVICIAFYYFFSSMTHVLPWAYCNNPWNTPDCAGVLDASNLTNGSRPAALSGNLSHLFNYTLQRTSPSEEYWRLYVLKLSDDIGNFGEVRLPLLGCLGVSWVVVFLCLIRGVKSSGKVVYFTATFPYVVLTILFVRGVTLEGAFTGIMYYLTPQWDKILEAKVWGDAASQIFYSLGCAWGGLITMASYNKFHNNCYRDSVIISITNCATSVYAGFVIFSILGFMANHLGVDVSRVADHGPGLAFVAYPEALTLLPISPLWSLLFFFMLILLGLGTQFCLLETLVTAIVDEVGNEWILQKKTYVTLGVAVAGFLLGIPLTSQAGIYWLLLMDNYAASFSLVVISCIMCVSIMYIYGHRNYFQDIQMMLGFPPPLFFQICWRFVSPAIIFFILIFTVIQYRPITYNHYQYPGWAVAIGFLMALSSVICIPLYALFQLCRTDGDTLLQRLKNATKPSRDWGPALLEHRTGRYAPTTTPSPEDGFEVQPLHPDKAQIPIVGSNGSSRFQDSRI
In words: Glycine Uptake Inhibition Assay (mGlyT-1b). The note with it: [3H]-glycine uptake inhibition at GlyT-1, Flp-in-CHO cells transfected with mGlyT-1b cDNA. It counts as cell-based. Summed up:
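Flp-in CHO cells stably expressing mouse GlyT-1b preincubated 20 min at 22 °C with inhibitor in pH 7.4 uptake buffer, then given 60 nM [3H]-glycine plus 25 μM unlabelled glycine. Cell radioactivity counted by scintillation; nonspecific uptake defined with 10 mM glycine; IC50 from concentration range.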

This passage reports IC50 results from patent US7605163B2, “Benzoyl-piperazine derivatives” (Hoffmann-La Roche Inc., priority 2003, dated 2009).

One may read the IC50 as the concentration at which inhibition is half-maximal. Low values mean greater potency, high ones weaker potency. In turn, `CS(=O)(=O)c1ccc(OCC2CC2)c(C(=O)N2CCN(c3ccc(Cl)cc3C#N)CC2)c1` [compound 228] displayed a half-maximal inhibitory concentration (IC50) of 47 nM. For `CC(C)(C)Oc1ccc(S(C)(=O)=O)cc1C(=O)N1CCN(c2cc(F)c(C#N)cc2F)CC1` [compound 234], the IC50 amounted to 43 nM. The value for `CC(C)(C)Oc1ccc(S(C)(=O)=O)cc1C(=O)N1CCN(c2ccc(C#N)cc2F)CC1` [compound 244] was 42 nM; that for `CC(C)(C)Oc1ccc(S(C)(=O)=O)cc1C(=O)N1CCN(c2ccc(C(F)(F)F)cc2F)CC1` [compound 247] was 30 nM; that for `CC(C)(C)Oc1ccc(S(C)(=O)=O)cc1C(=O)N1CCN(c2cc(F)c(S(C)(=O)=O)cc2F)CC1` [compound 249] was 32 nM.

`CC(C)(C)Oc1ccc(S(C)(=O)=O)cc1C(=O)N1CCN(c2c(F)cc(S(C)(=O)=O)cc2F)CC1` [compound 250] gave an IC50 of 61 nM. The compound `CS(=O)(=O)c1ccc(OCC(F)(F)F)c(C(=O)N2CCN(c3ccc(Cl)c(Cl)c3)CC2)c1` [compound 251] yielded a half-inhibitory concentration (IC50) of 32 nM. This IC50 is about 1.9-fold lower than that of the compound before. The value for `CC(=O)c1ccc(N2CCN(C(=O)c3cc(S(C)(=O)=O)ccc3OC3CCCCC3)CC2)c(F)c1` [compound 281] was 21 nM. `CS(=O)(=O)c1ccc(OC2CCCCC2)c(C(=O)N2CCN(c3ccc(C#N)cc3)CC2)c1` [compound 282]: the 50% inhibitory concentration (IC50) worked out at 27 nM. Compound `CS(=O)(=O)c1ccc(OC2CCCCC2)c(C(=O)N2CCN(c3ccc(C#N)cc3F)CC2)c1` [compound 283] had an IC50 of 8 nM. The value for `CS(=O)(=O)c1ccc(OC2CCCCC2)c(C(=O)N2CCN(c3ccc(C#N)c(F)c3)CC2)c1` [compound 284] was 10 nM. With `CS(=O)(=O)c1ccc(OC2CCCCC2)c(C(=O)N2CCN(c3ccc(C(F)(F)F)cc3)CC2)c1` [compound 285], the IC50 was 42 nM. Turning to `CS(=O)(=O)c1ccc(OC2CCCCC2)c(C(=O)N2CCN(c3ccc(C(F)(F)F)c(F)c3)CC2)c1` [compound 287], the IC50 amounted to 33 nM. Regarding `CS(=O)(=O)c1ccc(N2CCN(C(=O)c3cc(S(C)(=O)=O)ccc3OC3CCCCC3)CC2)c(F)c1` [compound 288], it took 25 nM to reach half-maximal inhibition (IC50). The value for `CC(C)(C)COc1ccc(S(C)(=O)=O)cc1C(=O)N1CCN(c2ccc(C#N)cc2)CC1` [compound 290] was 17 nM; that for `CC(C)(C)COc1ccc(S(C)(=O)=O)cc1C(=O)N1CCN(c2ccc(C#N)cc2F)CC1` [compound 291] was 13 nM. The value for `CC(C)(C)COc1ccc(S(C)(=O)=O)cc1C(=O)N1CCN(c2ccc(C#N)c(F)c2)CC1` [compound 292] was 21 nM.

`CC(C)(C)COc1ccc(S(C)(=O)=O)cc1C(=O)N1CCN(c2ccc(C(F)(F)F)cc2)CC1` [compound 293] returned an IC50 of 34 nM.

In the case of `CC(C)(C)COc1ccc(S(C)(=O)=O)cc1C(=O)N1CCN(c2ccc(C(F)(F)F)cc2F)CC1` [compound 294], the IC50 is 37 nM. For `CC(C)(C)COc1ccc(S(C)(=O)=O)cc1C(=O)N1CCN(c2ccc(C(F)(F)F)c(F)c2)CC1` [compound 295] the value was 16 nM; for `CC(C)(C)COc1ccc(S(C)(=O)=O)cc1C(=O)N1CCN(c2ccc(S(C)(=O)=O)cc2F)CC1` [compound 296], 43 nM. The value for `CC(Oc1ccc(S(C)(=O)=O)cc1C(=O)N1CCN(c2ccc(C(F)(F)F)cc2)CC1)C(F)(F)F` (stereo not shown) [compound 301] was 30 nM; that for `CC(=O)c1ccc(N2CCN(C(=O)c3cc(S(C)(=O)=O)ccc3OC3CCC3)CC2)c(F)c1` [compound 311] was 45 nM.

Compound `CS(=O)(=O)c1ccc(OC2CCC2)c(C(=O)N2CCN(c3ccc(C#N)cc3F)CC2)c1` [compound 313] registered an IC50 of 18 nM. In the case of `CS(=O)(=O)c1ccc(OC2CCC2)c(C(=O)N2CCN(c3ccc(C(F)(F)F)c(F)c3)CC2)c1` [compound 317], 41 nM corresponded to half-maximal inhibition (IC50). Compound `CC(C)Oc1ccc(S(C)(=O)=O)cc1C(=O)N1CCN(c2ccc(C(F)(F)F)cc2C#N)CC1` [compound 363] displayed an IC50 of 8 nM. For `CC(=O)c1ccc(N2CCN(C(=O)c3cc(S(C)(=O)=O)ccc3OC(C)C)CC2)cc1F` [compound 367] the value was 36 nM; for `CC(=O)c1ccc(N2CCN(C(=O)c3cc(S(C)(=O)=O)ccc3OCC3CC3)CC2)cc1F` [compound 369], 32 nM.

Turning to `CC(C)COc1ccc(S(C)(=O)=O)cc1C(=O)N1CCN(c2ccc(S(C)(=O)=O)c(F)c2)CC1` [compound 371], the IC50 turned out to be 41 nM. For the compound `CC(=O)c1ccc(N2CCN(C(=O)c3cc(S(C)(=O)=O)ccc3OCC(C)C)CC2)cc1F` [compound 372], the IC50 came to 6 nM. This IC50 lies about 6.8-fold lower than the previous one. For `CS(=O)(=O)c1ccc(OC2CCCC2)c(C(=O)N2CCN(c3ccc(C(F)(F)F)cc3C#N)CC2)c1` [compound 373] the value was 35 nM. The value for `CC(C)COc1ccc(S(C)(=O)=O)cc1C(=O)N1CCN(c2ccc(C(F)(F)F)cc2C#N)CC1` [compound 375] was 35 nM. Consider `CCS(=O)(=O)c1ccc(OC(C)C)c(C(=O)N2CCN(c3ccc(C(F)(F)F)cc3F)CC2)c1` [compound 393], for which the IC50 turned out to be 32 nM. The IC50 values of the last two compounds are within 1.5-fold of each other. For the compound `CC(C)Oc1ccc(S(C)(=O)=O)cc1C(=O)N1CCN(c2ccc(C(F)F)cc2F)CC1` [compound 400], the IC50 turned out to be 23 nM. The value for `CS(=O)(=O)c1ccc(OC2CCCC2)c(C(=O)N2CCN(c3ccc(C#N)cn3)CC2)c1` [compound 411] was 45 nM; that for `CS(=O)(=O)c1ccc(OC2CCCC2)c(C(=O)N2CCN(c3ccc(C(F)(F)F)cn3)CC2)c1` [compound 412] was 33 nM. In turn, `CS(=O)(=O)c1ccc(OC2CCCC2)c(C(=O)N2CCN(c3ncc(C(F)(F)F)cc3Cl)CC2)c1` [compound 413] yielded an IC50 of 30 nM. With `CC(C)Oc1ccc(S(C)(=O)=O)cc1C(=O)N1CCN(c2ncc(C(F)(F)F)cc2Cl)CC1` [compound 417], it took 46 nM to reach half-maximal inhibition (IC50). The compound `CS(=O)(=O)c1ccc(OC2CCCC2)c(C(=O)N2CCN(c3ccc(C(F)(F)F)nc3)CC2)c1` [compound 430] yielded an IC50 of 37 nM.

As to `CC(C)Oc1ccc(S(C)(=O)=O)cc1C(=O)N1CCN(c2ncc(C(F)(F)F)cc2F)CC1` [compound 437], the midpoint of inhibition, the IC50, lay at 26 nM. This IC50 and that of the compound before are within 1.5-fold of each other. For the compound `CS(=O)(=O)c1ccc(OC2CCCC2)c(C(=O)N2CCN(c3ncc(C(F)(F)F)cc3F)CC2)c1` [compound 439], the midpoint of inhibition, the IC50, lay at 21 nM. The value for `CC(C)Oc1ccc(S(C)(=O)=O)cc1C(=O)N1CCN(c2ccc(C=O)cc2F)CC1` [compound 461] was 46 nM; that for `CNS(=O)(=O)c1ccc(OCC(C)C)c(C(=O)N2CCN(c3ccc(C#N)c(F)c3)CC2)c1` [compound 475] was 40 nM; that for `CNS(=O)(=O)c1ccc(OCC2CCC2)c(C(=O)N2CCN(c3ccc(C#N)c(F)c3)CC2)c1` [compound 481] was 30 nM. The value for `CNS(=O)(=O)c1ccc(OCC(C)C)c(C(=O)N2CCN(c3ccc(C#N)cc3)CC2)c1` [compound 488] was 39 nM; that for `CNS(=O)(=O)c1ccc(OC2CCCC2)c(C(=O)N2CCN(c3ccc(C#N)cc3)CC2)c1` [compound 491] was 37 nM. The compound `CNS(=O)(=O)c1ccc(OCC2CCC2)c(C(=O)N2CCN(c3ccc(C#N)cc3)CC2)c1` [compound 494] returned an IC50 of 30 nM. The value for `CNS(=O)(=O)c1ccc(OCC(C)C)c(C(=O)N2CCN(c3ccc(C#N)cc3F)CC2)c1` [compound 504] was 25 nM. For `CNS(=O)(=O)c1ccc(OCC(C)(C)C)c(C(=O)N2CCN(c3ccc(C#N)cc3F)CC2)c1` [compound 505], the concentration for half-maximal inhibition (IC50) amounted to 24 nM.

For the compound `CNS(=O)(=O)c1ccc(OC(C)C)c(C(=O)N2CCN(c3ccc(C#N)cc3F)CC2)c1` [compound 506], inhibition was half-maximal at 46 nM (IC50). Against the preceding compound, the IC50 is about 1.9-fold higher. On to `CNS(=O)(=O)c1ccc(OC2CCCC2)c(C(=O)N2CCN(c3ccc(C#N)cc3F)CC2)c1` [compound 507], for which the half-inhibitory concentration (IC50) was determined as 31 nM.

With `CNS(=O)(=O)c1ccc(OCC2CC2)c(C(=O)N2CCN(c3ccc(C#N)cc3F)CC2)c1` [compound 509], the half-maximal inhibitory concentration (IC50) is 30 nM. The value for `CNS(=O)(=O)c1ccc(OCC2CCC2)c(C(=O)N2CCN(c3ccc(C#N)cc3F)CC2)c1` [compound 510] was 15 nM; that for `CNS(=O)(=O)c1ccc(OCC(C)C)c(C(=O)N2CCN(c3ccc(C(C)=O)cc3F)CC2)c1` [compound 514] was 45 nM. As for `CNS(=O)(=O)c1ccc(OCC(C)(C)C)c(C(=O)N2CCN(c3ccc(C(C)=O)cc3F)CC2)c1` [compound 515], half-maximal inhibition (IC50) was put at 40 nM. This IC50 and that of the compound before are within 1.5-fold of each other. In turn, `CNS(=O)(=O)c1ccc(OC2CCCC2)c(C(=O)N2CCN(c3ccc(C(C)=O)cc3F)CC2)c1` [compound 517] yielded an IC50 of 35 nM. The value for `CNS(=O)(=O)c1ccc(OCC2CC2)c(C(=O)N2CCN(c3ccc(C(C)=O)cc3F)CC2)c1` [compound 519] was 35 nM. For `CNS(=O)(=O)c1ccc(OCC(C)C)c(C(=O)N2CCN(c3ccc(C(F)(F)F)cc3)CC2)c1` [compound 524] the value was 12 nM.
